The test system of assay [1] is multipotent mesenchymal cells such as M2-10B4 (M2) marrow stromal cells and C3H10T1/2 embryonic fibroblasts. To be noted: cited from earlier work.
Assay [2] relates to rat two-level spine model. Put plainly: Posterolateral spinal fusion in a rat two-level spine model (radiographs, manual palpation). It counts as in vivo. The note with it: collagen/ceramic matrix wetted with sterile water, bilateral in posterolateral space, 4-week and 8-week timepoints. As for the experimental part: FIG. 6 illustrates uses of a formulation of malleable implants having 20 mg of Oxy133 on each side of the implant, in accordance with the malleable implants described herein. […] A dry composition of a matrix containing Oxy133, collagen and ceramic as described herein was prepared and wetted with sterile water to be implanted in rat spines as shown in FIG. 6. The wetted matrix was cut in half with a razor blade to yield two halves. The two implants were molded into cylindrical shapes prior to insertion and were positioned bilaterally in the posterolateral space of each test subject. Each implant contained 20 mg Oxy133. Radiographs were taken roughly 10 minutes after the procedure, 4 weeks after the procedure, and 8 weeks after the procedure. […] Fusion was tested at 8-week sacrifice by manual palpation. […] A dry composition of a matrix containing Oxy133, collagen and ceramic as described herein was prepared and wetted with sterile water to be implanted in rat spines as shown in FIG. 6. The wetted matrix was cut in half with a razor blade to yield two halves. The two implants were molded into cylindrical shapes prior to insertion and were positioned bilaterally in the posterolateral space of each test subject. Each implant contained 125 mg Oxy133. Radiographs were taken roughly 10 minutes after the procedure, 4 weeks after the procedure, and 8 weeks after the procedure. […]

Consider four compounds from patent US9878070B2, “Malleable implants including an oxysterol and methods of use” (Warsaw Orthopedic, Inc., priority 2015, dated 2018).

“Also recorded” adds a separate entry of the source.

Turning to `CC(C)CCC[C@](C)(O)[C@H]1CC[C@H]2[C@@H]3CC=C4C[C@@H](O)CC[C@]4(C)[C@H]3CC[C@@]21C` [20(S)-hydroxycholesterol], in assay [1], the osteogenic differentiation result is “induce osteogenic differentiation”.
Turning to `CC(C)CC[C@H](O)[C@@H](C)[C@H]1CC[C@H]2[C@@H]3CC=C4C[C@@H](O)CC[C@]4(C)[C@H]3CC[C@]12C` [22(S)-hydroxycholesterol], the osteogenic differentiation result in assay [1] is recorded as “induce osteogenic differentiation”.
For `CCCCCC[C@](C)(O)[C@H]1CC[C@H]2[C@@H]3C[C@H](O)[C@H]4C[C@@H](O)CC[C@]4(C)[C@H]3CC[C@@]21C` [Oxy133, (3S,5S,6S,8R,9S,10R,13S,14S,17S) 17-((S)-2-hydroxyoctan-2-yl)-10,13-dimethylhexadecahydro-1H-cyclopenta[a]phenanthrene-3,6-diol], the “bridging bone across the transverse processes of L3-L5 / bone growth (radiographs)” value in assay [2] (20 mg Oxy133 per implant) and in assay [2] (125 mg Oxy133 per implant) was “promoted bridging bone; also recorded: Bone growth in rat test subjects can be seen” in each case.
With `CC(C)CC[C@@H](O)[C@@H](C)[C@H]1CC[C@H]2[C@@H]3CC=C4C[C@@H](O)CC[C@]4(C)[C@H]3CC[C@]12C` [22(R)-hydroxycholesterol], the osteogenic differentiation entry in assay [1] was “induce osteogenic differentiation”.
